# Tests used:
# [1] = system: colorectal cancer cell lines CT26, HCT116 and SW480; experiment: MTT cell survival rate, colorectal cancer cell lines; assay type: cell-based, mouse (CT26), human (HCT116; settings: single treatment, 24, 48 and 72 hours; for concentration at which toxicity was shown (cell survival rate): FIGS. 1 to 3
# Experimental: In order to confirm the effect of chlorphenesin (named as OC-201), chloroquine (named as OC-202) and chloropyrazine (named as OC-203) alone on the survival rate of colorectal cancer cells, cell survival rate was evaluated for the colorectal cancer cell lines CT26, HCT116 and SW480 cell lines by MTT assay (Promega, Ltd.) according to the manufacturer's protocol. […] The pre-treated cell lines were incubated with 5 mg/mL MTT for 4 hours. Thereafter, the medium was removed, and 150 μL of the solubilization solution and the stop solution were added, followed by incubation at 30° C. for 4 hours. The absorbance of the reaction solution was measured at 570 nm. The cell survival rate was calculated using the following Equation 1. Cell survival rate=absorbance of experimental group (at 570 nm)/absorbance of control (at 570 nm)×100(%) [Equation 1]
# (§1) The pre-treated cell lines were incubated with 5 mg/mL MTT for 4 hours. Thereafter, the medium was removed, and 150 μL of the solubilization solution and the stop solution were added, followed by incubation at 30° C. for 4 hours. The absorbance of the reaction solution was measured at 570 nm. The cell survival rate was calculated using the above Equation 1.
# [2] = system: pancreatic cancer cell lines Aspc-1, MIAPaCA2 and Panc-1; experiment: MTT cell survival rate, pancreatic cancer cell lines; assay type: cell-based, human; settings: for cytotoxicity (cell survival rate), single administration: up to 1 mM chlorphenesin, up to 100 μM chloropyrazine, 24, 48, 72 hours, FIGS. 30 and 32
# Experimental: as §1, with “mg/ml” for “mg/mL”, “equation 1 as described above.” for “above Equation 1.”
# as §1, with “mg/ml” for “mg/mL”, “equation” for “Equation”
# SNU 308 cell line = experiment: MTT cell survival rate; assay type: cell-based, human; settings: after 48 hours, FIG. 47
# Experimental: as §1, with “mg/ml” for “mg/mL”, “equation 1 as described above.” for “the above Equation 1.”
# SNU1079 = experiment: MTT cell survival rate; assay type: cell-based, human; settings: FIG. 47
# Experimental: as §1, with “mg/ml” for “mg/mL”, “equation 1 as described above.” for “the above Equation 1.”
# SW480 cell line = experiment: Transwell migration assay, chlorphenesin alone; assay type: cell-based, human; settings: 18 hours, laminin in lower well, FIGS. 6 and 7
# HCT116 cell line = experiment: Transwell migration assay, chlorphenesin alone; assay type: cell-based, human; settings: 18 hours, FIGS. 8 and 9
# CT26 cell line = experiment: Transwell migration assay, chlorphenesin alone; assay type: cell-based, mouse; settings: 18 hours, FIGS. 10 and 11
# [3] = system: colorectal cancer cell lines HCT116; experiment: Soft agar colony formation assay (anchorage independent growth), chlorphenesin alone; assay type: cell-based, human; settings: 3 weeks, FIG. 27
# [4] = system: biliary tract cancer cell lines SNU1079 and SNU308; settings: human, 48 h
# Experimental: as §1, with “mg/ml” for “mg/mL”, “equation 1 as described above.” for “the above Equation 1.”
# as §1, with “mg/ml” for “mg/mL”, “equation” for “Equation”
# [5] = system: colorectal cancer cells CT26 and HCT116; experiment: Transwell migration assay at low concentration; assay type: cell-based, mouse (CT26), human (HCT116); settings: 1 μM chlorphenesin; 8 hours; FIG. 58
# [6] = system: colorectal cancer cell line CT26; experiment: Wound healing assay at low concentration; assay type: cell-based, mouse; settings: 1 μM chlorphenesin; 24 hours; FIG. 59
# Experimental: Wound healing analysis was performed to measure cell motility. […] After incubation of the cells for 24 hours in the presence or absence of chlorphenesin (1 μM), a photograph of the dyed monolayers was taken with a microscope.
# CT26 cell-induced tumors = experiment: CT26 tumor animal model, tumor growth and lung metastasis; assay type: in vivo, Balb/c mice
# Experimental: Specifically, 60 Balb/c mice were subcutaneously inoculated once with 100 μL of CT26 cell suspension (1×10^7 cells/mL) to induce tumors, thereby producing a xenograft animal model. […] For the chlorphenesin single administration, 10 animal models were abdominally administered with 10 mg/kg chlorphenesin (3 times a week) for 5 weeks or 14 animal models were orally administered with 20 mg/kg chlorphenesin (5 times a week) for 5 weeks. 14 animal models were administered with the same dose of PBS as chlorphenesin as a negative control. […] The body weight of the animal models was measured once a week, and the tumor size was measured once a week from the day of drug administration. After 6 weeks, animal models were anesthetized with ether, and tumors and lungs were collected.
# [7] = system: colorectal cancer cell line HCT116; experiment: Wound healing assay; settings: 0, 8 and 24 hours, FIGS. 21 to 23
# [8] = system: biliary tract cancer cell line SNU1079; experiment: Transwell migration assay with Combination Index; settings: 18 hours, FIGS. 51 and 52
structure (smiles),measurement,setting,value
Clc1cnccn1 [chloropyrazine],concentration at which not toxic (cell survival rate),[1]; FIG. 3,≤ 100 µM
same,"cytotoxicity (cell survival rate), single administration",[2],did not show cytotoxicity even at high doses
CCN(CC)CCCC(C)Nc1ccnc2cc(Cl)ccc12 (stereo not drawn) [chloroquine],concentration at which toxicity was shown (cell survival rate),[1],more than 10 μM
same,concentration at which cytotoxicity was shown,"[2]; single administration, FIG. 31",≥ 50 µM
same,concentration at which cytotoxicity was shown,SNU 308 cell line,≥ 50 µM
same,concentration at which cytotoxicity was shown,SNU1079; after 48 hours,≥ 25 µM
same,concentration at which cytotoxicity was shown,SNU1079; for 24 hours,≥ 50 µM
OCC(O)COc1ccc(Cl)cc1 (stereo not drawn) [chlorphenesin],concentration at which toxicity was shown (cell survival rate),[1],more than 500 μM
same,concentration at which cell migration was significantly reduced,SW480 cell line,≥ 25 µM
same,concentration at which cell migration was specially decreased,HCT116 cell line,≥ 250 µM
same,concentration at which cell migration was specially decreased,CT26 cell line,≥ 250 µM
same,concentration at which colony forming ability was decreased,[3],≥ 250 µM
same,"cytotoxicity (cell survival rate), single administration",[2],did not show cytotoxicity even at high doses
same,concentration at which apparent cytotoxicity was shown,[4],≥ 1000 µM
same,invasion ability and migration ability of the cells compared to the control,[5],significantly reduced
same,mobility of the CT26 cell line (wound healing),[6],reduced
same,tumor size compared with the control groups,"CT26 cell-induced tumors; chlorphenesin 20 mg/kg orally, 5 times a week for 5 weeks, FIG. 61",reduction in the tumor size
same,cancer metastasis to lungs compared to control groups,"CT26 cell-induced tumors; chlorphenesin-treated group, 5 weeks dosing, lungs collected after 6 weeks, FIG. 60",no cancer metastasis to lungs
same,concentration at which migration was decreased (wound healing),[7],≥ 25 µM
same,concentration at which cell migration was decreased,[8],≥ 25 µM
same,concentration at which the decrease of cell migration was remarkable,[8],≥ 100 µM

# From patent US11364237B2, “Composition for inhibiting cancer metastasis and treating cancer” (ONCOCROSS CO., LTD., priority 2017, dated 2022)
